The values below come from PubChem BioAssay AID1918958 (Molecular Pharmacology Branch, DTP, NCI, 2023).

The test system of this assay is NCI-H196 complex spheroid viability. Description: Anticancer human tumor NCI-H196 cell line growth inhibition [LSD1].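 On all read-outs here: spheroids exposed to agents for 7 days before readout.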 The conditions noted are these: for viability, T/C: stronger effect = lower value. From the text: Multicellular complex tumor spheroid response to LSD1 Inhibitor Iadademstat in combination with a variety of drugs and investigational agents in selected tumor cell lines
The current study was undertaken to assess response to LSD1 inhibitors in combination with standard-of-care drugs and investigational agents in solid tumor complex spheroid models as well as in the K-562 leukemia. Complex spheroids include a stromal component modeled by human endothelial cells (HUVEC) and fibroblasts modeled by human mesenchymal stem cells (MSCs). The concentration ranges selected for each drug and investigational agent were based upon clinically achievable concentrations if the clinical Cmax of the agent was known.
Compounds. The drugs and investigational agents used in this study are listed on Table 1. All of the agents used, including staurosporine (NSC755774) and gemcitabine (NSC613327), were obtained from the Developmental Therapeutics Program, NCI. FDA-approved anticancer drugs are available from the NCI at http://dtp.nci.nih.gov/branches/dscb/oncology_drugset_explanation.html. Drugs and investigational agents were >95% pure by proton nuclear magnetic resonance (NMR) and liquid chromatography/mass spectrometry (LC/MS). Stock solutions were prepared at 400x in DMSO, stored at -70 degrees C, and diluted in fresh medium prior to their use. The final concentration of DMSO in cell culture wells never exceeded 0.25% (v/v). The FDA-approved anticancer drug set is available from the Developmental Therapeutics Program at https://dtp.cancer.gov/organization/dscb/obtaining/available_plates.htm. All drugs and investigational agents were tested over a range starting from a high concentration at or near the clinical Cmax and decreasing in half-log increments. If the clinical Cmax for an agent had not been determined, the highest concentration tested was 10 microM.
Cell Lines. The patient-derived cancer cell (PDC) lines: 292921-168-R-J2-PDC, K24384-001-R-PDC, and 521955-158-R2-J5-PDC pancreatic carcinomas, 556581-035-R-J1 ovarian carcinoma, 324938-238-R-J1-PDC, 855422-203-R-J1-PDC and 883617-216-R-J1-PDC urothelial bladder carcinomas, 743489-274-T-PDC renal cell carcinoma, 138582-R-J1 Merkel cell tumor, K60290-347-R-J1 and K57222-313-R-J1-PDC glioblastomas, 653999-131-R-J2-PDC, LG0703-F948-PDC, and 349418-098-R-PDC non-small cell lung carcinomas, 885512-296-R-J2-PDC, 171881-019-R-J1-PDC breast carcinomas and 186277-243-T-J2-PDC and 233499-124-R-J2-PDC colon carcinomas were obtained from the NCI Patient-Derived Models Repository (PDMR, https://pdmr.cancer.gov). The established cell lines NCI/ADR-RES (RRID:CVCL_14520 and OVCAR-5 (RRID:CVCL_1628) ovarian carcinomas, 786-O (RRID:CVCL_1051) and A498 (RRID:CVCL_A498) renal cell carcinoma, NCI-H211 (ATCC, cat. CRL-5824; RRID:CVCL_1529), NCI-H196 (ATCC, cat. CRL-5823, RRID:CVCL_1509), SW 1271 (ATCC, cat. CRL-2177, RRID:CVCL_1716) and NCI-H1876 (ATCC, cat. CRL-5902, RRID:CVCL_1503) small cell lung carcinomas, MDA-MB-231 (RRID:CVCL_0062) and MDA-MB-468 (RRID:CVCL_0419)breast carcinomas (10-12). Pooled donor human umbilical vein endothelial cells (HUVEC, Lonza, cat. CC-2519) and human mesenchymal stem cells (hMSC, Lonza, cat. PT-2501) were purchased from Lonza (Walkersville, MD).
Cell Culture. All cells were maintained in an incubator at 37 degrees C and 5% CO2 with 95% humidity. The PDC lines were cultured according to standard operating procedures established by the NCI PDMR (https://pdmr.cancer.gov). Briefly all PDCs were thawed and cultured in Matrigel-coated flasks prepared with a working solution of 1X Ham's F-12 nutrient mix, without supplementation (Invitrogen, Waltham, MA, cat. 11765054), 100 U/mL penicillin-streptomycin (Invitrogen, cat. 15140122), and 2.5% Matrigel (Corning Inc., Corning, NY, cat. 354248) for the first three passages. […]

Values joined by “and” are separate entries in the source; they are usually repeats but may differ in a detail not shown here. Identical values can stand only once. A value given as a limit tells only on which side of the number the result lay.

As a reminder, the viability, T/C is the ratio of treated to control. A word on the IC50: it is the concentration needed to halve the response being measured. In the case of `CC(C)c1c(-c2ccccc2)nc2c(C#N)c[nH]n2c1=O`, the viability, T/C is, setting by setting: (compound 0.0316 µM) 107% and 96.4%; (compound 0.1 µM) 108% and 100%; (compound 0.316 µM) 98.3% and 93.8%; (compound 1 µM) 101% and 91%; (compound 3.16 µM) 99.7% and 94.1%; (compound 10 µM) 88.7% and 84.2%. Further, the IC50 (curve of compound) was over 10 µM.
For the molecule `CC1COCCN1c1cc(C2(S(C)(=N)=O)CC2)nc(-c2ccnc3[nH]ccc23)n1` (centres undefined), the viability, T/C is 96.2% and 97.2% (compound 0.0316 µM); 100% and 94.8% (compound 0.1 µM); 91.8% and 98.8% (compound 0.316 µM); 84.6% and 84.2% (compound 1 µM); 77.8% and 76.2% (compound 3.16 µM); 72.7% and 74.6% (compound 10 µM). For the same molecule, the IC50 (curve of compound) was over 10 µM.
On to `COc1ccc([C@@H](O)c2cc(-c3ncnc4cc(N5CCOCC5)ccc34)c(F)cc2Cl)nn1`, for which the viability, T/C was 97.9% and 93.4% (compound 0.0316 µM); 100% and 90.9% (compound 0.1 µM); 90.4% and 84.7% (compound 0.316 µM); 86.4% and 85.7% (compound 1 µM); 83.8% and 73.6% (compound 3.16 µM); 57.7% and 53.2% (compound 10 µM). The IC50 (curve of compound) was over 10 µM.
As for `NC1CC1c1ccc(-c2cccc(O)c2)cc1` (centres undefined), the viability, T/C (compound 0.316 µM) is 95.9% [middle of 25 runs] and the viability, T/C (compound 1 µM) was 97.8% [middle of 25 runs]. Further, the IC50 (compound alone, run of 02/21/2022) was over 10 µM.
`NC1CCC(NC2CC2c2ccccc2)CC1` (centres undefined): the viability, T/C is 93.8% and 93% (compound 0.316 µM); 96.9% [middle of 25 runs] (compound 1 µM); 97.9% [middle of 25 runs] (compound 3.16 µM); 97.5% [middle of 23 runs] (compound 10 µM). Moreover, the IC50 (compound alone, run of 02/15/2022) is over 10 µM.
In the case of `Nc1ncn(C2CC(O)C(CO)O2)c(=O)n1` (centres undefined) + NC1CC1c1ccc(-c2cccc(O)c2)cc1, the half-inhibitory concentration (IC50) (curve of first compound, second compound 0.1 µM) is over 1 µM; the IC50 (curve of first compound, second compound 0.316 µM) was over 1 µM; the IC50 (curve of first compound, second compound 1 µM) is over 1 µM; the IC50 (curve of first compound, second compound 3.16 µM) is over 1 µM; the 50% inhibitory concentration (IC50) (curve of first compound, second compound 10 µM) is over 1 µM. The viability, T/C runs as follows: (second compound 0.1 µM, first compound 0.00316 µM) 98.6%; (second compound 0.1 µM, first compound 0.01 µM) 99.9%; (second compound 0.1 µM, first compound 0.0316 µM) 99.7%; (second compound 0.1 µM, first compound 0.1 µM) 87.9%; (second compound 0.1 µM, first compound 0.316 µM) 99.5%; (second compound 0.1 µM, first compound 1 µM) 97.9%. For the same molecule, the viability, T/C (second compound 0.316 µM, first compound 0.00316 µM) was 97.5%; the viability, T/C (second compound 0.316 µM, first compound 0.01 µM) is 95.6%; the viability, T/C (second compound 0.316 µM, first compound 0.0316 µM) is 98.9%; the viability, T/C (second compound 0.316 µM, first compound 0.1 µM) was 89%; the viability, T/C (second compound 0.316 µM, first compound 0.316 µM) was 94.2%; the viability, T/C (second compound 0.316 µM, first compound 1 µM) was 97%. The viability, T/C reads like this: (second compound 1 µM, first compound 0.00316 µM) 98.4%; (second compound 1 µM, first compound 0.01 µM) 100%; (second compound 1 µM, first compound 0.0316 µM) 98.7%; (second compound 1 µM, first compound 0.1 µM) 91.2%; (second compound 1 µM, first compound 0.316 µM) 96.4%; (second compound 1 µM, first compound 1 µM) 97.7%. Also, the viability, T/C (second compound 3.16 µM, first compound 0.00316 µM) was 96.4%; the viability, T/C (second compound 3.16 µM, first compound 0.01 µM) was 95%; the viability, T/C (second compound 3.16 µM, first compound 0.0316 µM) was 98.1%; the viability, T/C (second compound 3.16 µM, first compound 0.1 µM) is 88.9%; the viability, T/C (second compound 3.16 µM, first compound 0.316 µM) is 106%; the viability, T/C (second compound 3.16 µM, first compound 1 µM) was 95.9%. Further, the viability, T/C was 105% (second compound 10 µM, first compound 0.00316 µM); 106% (second compound 10 µM, first compound 0.01 µM); 96.3% (second compound 10 µM, first compound 0.0316 µM); 98.4% (second compound 10 µM, first compound 0.1 µM); 95.4% (second compound 10 µM, first compound 0.316 µM); 95.2% (second compound 10 µM, first compound 1 µM).
